Laboratory results from article PMC9995496, “A screen for MeCP2-TBL1 interaction inhibitors using a luminescence-based assay” (Scientific Reports, 2023).
Where a name gives a salt, the structure may show the parent alone.

System: PRKACA-PRKAR2A interaction (SmBiT-PRKACA / LgBiT-PRKAR2A), protein kinase A
Design: NanoLuc complementation counter-screen in cell extract, PRKACA with PRKAR2A, loss of luminescence, detects NanoLuc interference
Conditions: 0.5 h, 20 µM; inhibitor

SMILES | Inh (PKA)
COc1ccc2c(O[C@@H]3C[C@H]4C(=O)N[C@]5(C(=O)NS(=O)(=O)C6CC6)C[C@H]5/C=C\CCCCN(C)C(=O)[C@@H]4C3)cc(-c3nc(C(C)C)cs3)nc2c1C [UM0141629:01, Simeprevir] | 16.13
Cc1cc(N2CCN([C@@H]3CN[C@H](C(=O)N4CCSC4)C3)CC2)n(-c2ccccc2)n1 [UM0141637:01, Teneligliptin hydrobromide] | -1.766%
Cn1c(COP(=O)(NCCBr)NCCBr)cnc1[N+](=O)[O-] [UM0141638:01, TH-302] | 1.841%

Same assay, conditions: counter-screen for NanoLuc interference, 0.5 h, 20 µM, inhibitor, Inh (PKA)

Inh (PKA) | SMILES
0.5825% | Nc1nc2[nH]cc(CCc3ccc(C(=O)N[C@@H](CCC(=O)O)C(=O)O)cc3)c2c(=O)[nH]1 [UM0141598:01, Pemetrexed disodium hemipenta hydrate]
0.874% | CCCC(CCC)C(=O)O [UM0141598:02, Valproic acid sodium salt (Sodium valproate)]
2.459% | CCC(CC)[C@H](NC(C)=O)[C@@H]1[C@H](O)[C@@H](C(=O)O)C[C@H]1NC(=N)N [UM0141600:01, Peramivir]
17.85% | Oc1cccc(-c2nc(N3CCOCC3)c3oc4ncccc4c3n2)c1 [UM0141606:01, PI-103 Hydrochloride]
6.023% | CNC(=O)c1cc(Oc2ccc(NC(=O)Nc3ccc(Cl)c(C(F)(F)F)c3)c(F)c2)ccn1 [UM0141611:01, Regorafenib monohydrate]
5.988% | CNC(=O)c1cc(Oc2ccc(NC(=O)Nc3ccc(Cl)c(C(F)(F)F)c3)c(F)c2)ccn1 [UM0141611:02, Regorafenib]
5.153% | CC(C)Cc1ccc([C@@H](C)C(=O)NS(C)(=O)=O)cc1 [UM0141612:01, Reparixin]
7.24% | CC(C)Cc1ccc([C@@H](C)C(=O)NS(C)(=O)=O)cc1 [UM0141612:02, Reparixin L-lysine salt]
28.19% | N#CC[C@H](C1CCCC1)n1cc(-c2ncnc3[nH]ccc23)cn1 [UM0141622:01, Ruxolitinib phosphate]
11.73% | O=C(Nc1ccc2[nH]nc(-c3ccncc3)c2c1)[C@@H]1CCN(CC(=O)N2CCN(c3ccc(-c4ncccn4)cc3)CC2)C1 [UM0141626:01, SCH772984]
-0.5342% | CCCc1nn(C)c2c(=O)[nH]c(-c3cc(S(=O)(=O)N4CCN(C)CC4)ccc3OCC)nc12 [UM0141628:01, Sildenafil]

SMILES | Inh (PKA)
CCN(C)C(=O)Oc1cccc([C@H](C)N(C)C)c1 [UM0141620:01, Rivastigmine] | 1.357%

Same assay, conditions: counter-screen for NanoLuc interference; 0.5 h, 20 µM; inhibitor

Inh (PKA) | SMILES
1.56% | O=C(O)CCCc1ccccc1 [UM0141598:03, Sodium Phenylbutyrate]
66.65% | Cc1nc(Nc2n[nH]c3c2CN(C(=O)N[C@H](CN(C)C)c2ccccc2)C3(C)C)c2sccc2n1 [UM0141601:01, PF-3758309]
1.427% | O=C1NCCc2[nH]c(-c3ccncc3)cc21 [UM0141605:01, PHA-767491]
31.48% | CC1=CC(=O)C(C(C)C)=C/C1=N/OC(=O)c1ccccc1C [UM0141608:01, Poloxin]
2.359% | Cc1cccc(-c2[nH]ncc2-c2ccc3ncccc3n2)n1 [UM0141613:01, RepSox]
61.94% | CC(C)=CCC/C(C)=C/CC/C(C)=C/CSc1ccccc1C(=O)O [UM0141623:01, Salirasib]
4.073% | O=C1c2ccccc2C(=O)c2oc(-c3ccccc3)nc21 [UM0141630:01, SJB2-043]
49.23% | CC(C)NC(=O)COc1cccc(-c2nc(Nc3ccc4[nH]ncc4c3)c3ccccc3n2)c1 [UM0141632:01, SLx-2119]
46.56% | Cc1c[nH]c(/C=C2\C(=O)Nc3ccccc32)c1CCC(=O)O [UM0141633:01, SU 5402]
2.103% | COc1cccc2c1c(O)c(C(=O)N(C)c1ccc(C(F)(F)F)cc1)c(=O)n2C [UM0141635:01, Tasquinimod]
12.61% | Cc1ccc(-c2csc3ncnc(SCCC(=O)O)c23)cc1 [UM0141643:01, TTP 22]
14.62% | Cc1cnc(Nc2ccc(F)cc2Cl)nc1-c1c[nH]c(C(=O)N[C@H](CO)c2cccc(Cl)c2)c1 [UM0141646:01, VX-11e]
14.04% | CCOc1cc(N2CCC(O)CC2)ccc1Nc1ncc2c(n1)N(C)c1ccccc1C(=O)N2C [UM0141652:01, XMD8-92]
4.248% | COc1ccc(C(=O)CC2(O)C(=O)Nc3c(Cl)ccc(Cl)c32)cc1 (centres unmarked) [UM0141653:01, YK-4-279]
21.79% | N[C@@H]1CCCN(c2c(/C=C3\SC(=O)NC3=O)cccc2-c2ccccc2)C1 [UM0141655:01, AZD1208]
84.34% | CC(=O)O/N=C1\C(=O)N(Cc2cc(Cl)ccc2Cl)c2ccc(Cl)cc21 [UM0141658:01, LDN 57444]
10.15% | CC(C)(C(=O)NCC(F)(F)C(F)(F)F)C(=O)N[C@@H]1C(=O)Nc2ccccc2-c2ccccc21 [UM0141660:01, RO4929097]
5.084% | O=C(O)CC[C@H]1CC[C@@](c2cc(F)ccc2F)(S(=O)(=O)c2ccc(Cl)cc2)CC1 [UM0141661:01, MK-0752]

Continued, compound first:

SMILES | Inh (PKA)
CCC(CC)O[C@@H]1C=C(C(=O)O)C[C@H](N)[C@H]1NC(C)=O [UM0141596:01, Oseltamivir acid] | 1.334%
COC(=O)[C@H](Cc1cccc(C(=N)N)c1)[C@@H](C)NC(=O)c1ccc(-c2cc[n+]([O-])cc2)cc1 [UM0141597:01, Otamixaban] | 3.513%
OC[C@H]1O[C@@H](n2cnc3c2N=CNC[C@H]3O)C[C@@H]1O [UM0141599:01, Pentostatin] | 1.284%
Nc1nccc(-c2c(-c3ccc(F)cc3)ncn2C2CCCCC2)n1 [UM0141603:01, PF-670462] | 48.77%
O=C(CCN1CCN(C(=O)OCc2cc(Cl)cc(Cl)c2)CC1)c1ccc2[nH]c(=O)oc2c1 [UM0141604:01, PF-8380] | 13.11%
CNC(=O)c1ccccc1Nc1cc(Nc2ccc(N3CCOCC3)cc2OC)ncc1C(F)(F)F [UM0141607:01, PND-1186] | 14.93%
NC(=O)c1cnc(N[C@@H]2CCCC[C@@H]2N)nc1Nc1cccc(-n2nccn2)c1 [UM0141609:01, PRT062607 Hydrochloride] | 22.19%
CC(C)OC(=O)[C@H](C)N[P@](=O)(OC[C@H]1O[C@@H](n2ccc(=O)[nH]c2=O)[C@](C)(F)[C@@H]1O)Oc1ccccc1 [UM0141610:01, PSI-7977] | 2.04%
c1nc2c(NC3CCCCC3)nc(Nc3ccc(N4CCOCC4)cc3)nc2[nH]1 [UM0141614:01, Reversine] | 32.72%
CCOc1cc(C(C)(C)C)ccc1C1=N[C@@](C)(c2ccc(Cl)cc2)[C@@](C)(c2ccc(Cl)cc2)N1C(=O)N1CCN(CCCS(C)(=O)=O)CC1 [UM0141616:01, RG7112] | 18.3%
COc1cc(C(=O)O)ccc1NC(=O)[C@@H]1N[C@@H](CC(C)(C)C)[C@](C#N)(c2ccc(Cl)cc2F)[C@H]1c1cccc(Cl)c1F [UM0141617:01, RG7388] | 51.62%
Cc1cc(/C=C/C#N)cc(C)c1Nc1ccnc(Nc2ccc(C#N)cc2)n1 [UM0141618:01, Rilpivirine] | 30.56%
COC(=O)N(C)c1c(N)nc(-c2nn(Cc3ccccc3F)c3ncccc23)nc1N [UM0141619:01, Riociguat] | 2.487%
O=C(NCc1cccc(O)c1)Nc1nc(-c2ccncc2)cs1 [UM0141621:01, RKI-1447] | -11%
CC(C)(C)NC(=O)[C@@H]1C[C@@H]2CCCC[C@@H]2CN1C[C@@H](O)[C@H](Cc1ccccc1)NC(=O)[C@H](CC(N)=O)NC(=O)c1ccc2ccccc2n1 [UM0141624:01, Saquinavir mesylate] | 9.291%
COc1nccc(-c2c(-c3ccc(F)cc3)ncn2[C@H]2CC[C@H](O)CC2)n1 [UM0141625:01, SB 239063] | 17.29%
CCOc1ccc(Oc2ccc(OCc3cc(F)ccc3F)cc2)c(N)c1 [UM0141627:01, SEA0400] | 3.449%
O=C1c2ccc(Nc3ccc(F)cc3F)cc2CCc2ccc(OC[C@H](O)CO)cc21 [UM0141631:01, Skepinone-L] | 17.25%
CCOC(=O)C1=CCCC[C@H]1S(=O)(=O)Nc1ccc(F)cc1Cl [UM0141634:01, TAK-242] | 47.57%
Fc1ccccc1-c1nc2ccn(Cc3ccc(-c4ccc(C(F)(F)F)cc4C(F)(F)F)nn3)cc-2n1 [UM0141636:01, Tegobuvir] | 1.649%
N=C1CCCN1Cc1[nH]c(=O)[nH]c(=O)c1Cl [UM0141639:01, Tipiracil hydrochloride] | 0.165%
Cn1c(=O)cc(N2CCC[C@@H](N)C2)n(Cc2cc(F)ccc2C#N)c1=O [UM0141640:01, Trelagliptin] | -0.04176%
CC(C)[C@]12O[C@H]1[C@@H]1O[C@]13[C@]1(O[C@H]1C[C@H]1C4=C(CC[C@@]13C)C(=O)OC4)[C@@H]2O [UM0141641:01, Triptolide] | 1.248%
CCC1=C[C@@H]2CN(C1)Cc1c([nH]c3ccccc13)[C@@](C(=O)OC)(c1cc3c(cc1OC)N(C)[C@H]1[C@@](O)(C(=O)OC)[C@H](OC(C)=O)[C@]4(CC)C=CCN5CC[C@]31[C@@H]54)C2 [UM0141644:01, Vinorelbine ditartrate] | 3.937%
O=C(Nc1ccc(-c2ccnc(Nc3ccc(N4CCOCC4)cc3)n2)cc1)C1CCCN1 (centres unmarked) [UM0141648:01, XL019] | -3.897%
CC(C)c1cc(CNc2nc(Nc3cc(C4CC4)[nH]n3)cc(N3CCN(C)CC3)n2)on1 [UM0141649:01, XL228] | 43.07%
CCOc1cc(C(=O)N2CCC(N3CCN(C)CC3)CC2)ccc1Nc1ncc2c(n1)N(C1CCCC1)c1ccccc1C(=O)N2C [UM0141651:01, XMD17-109] | 18.58%
C[C@]1(c2nc3c(C(N)=O)cccc3[nH]2)CCCN1 [UM0141654:01, Veliparib dihydrochloride] | 0.673%
Cc1ccc(/C=C2\CNC/C(=C\c3ccc(C)cc3)C2=O)cc1 [UM0141659:01, NSC 632839 hydrochloride] | 12.94%
